Data on 6 molecules can be found in ChEMBL document CHEMBL1201862, “PubChem BioAssay data set” (2004).

Test systems include A498; DU-145; HCC 2998; HOP-62; HT-29; IGROV-1; K562; KM12; M14; MDA-MB-231; MOLT-4; Malme-3M; NCI-H226; NCI-H23; NCI-H460; NCI/ADR-RES; OVCAR-8; RXF 393; SK-OV-3; SR.
What all share (assay): NCI-60 cell line screen, 48 h

The structures appear in SMILES notation.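 A five-concentration, 48-hour dose response in 96-well plates underlies each endpoint, interpolated linearly between surrounding concentrations. GI50 marks 50% less growth.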 The source made the active and inactive calls. Cut-off read from the data, not from the text of the source: active = GI50 up to about 1.1 µM and inactive = higher. A value given as a limit tells only on which side of the number the result lay.

Take `COc1cccc2c1C(=O)c1c(O)c3c(c(O)c1C2=O)C[C@@](O)(C(=O)CO)CC3OC1CC(O)C(O)C(C)O1` (stereo not given in full): the GI50 in the experiment with A498 is 0.171 µM (active); in the experiment on DU-145 it was 0.0294 µM (active); in the experiment on HCC 2998, 0.562 µM (active); in the experiment with HOP-62, 0.0146 µM (active); with HT-29 it was 0.354 µM (active); in the experiment on IGROV-1, 0.333 µM (active). The GI50 in the experiment on K562 was 0.239 µM (active); in the experiment on KM12, 0.35 µM (active); in the experiment with M14, 0.361 µM (active); in the experiment with MDA-MB-231 it was 0.565 µM (active); in the experiment with MOLT-4 it was 0.0202 µM (active); in the experiment on Malme-3M, 0.141 µM (active). Moreover, the GI50 in the experiment on NCI-H226 is 0.0218 µM (active); in the experiment with NCI-H23 it was 0.0879 µM (active); in the experiment with NCI-H460, < 0.01 µM (active); in the experiment with NCI/ADR-RES, 1.13 µM (inactive); in the experiment on OVCAR-8, 0.256 µM (active); with RXF 393, 0.238 µM (active). The GI50 in the experiment with SK-OV-3 was 0.235 µM (active); with SR, < 0.01 µM (active).
`CC(=O)[C@H]1[C@H](O)C[C@@]2(C)[C@@H]3CCc4cc(O)c(OC5OC(CO)C(O)C(O)C5O)cc4C3(C)C(=O)C[C@]12C` (stereo not given in full): the GI50 in the experiment on A498, in the experiment with DU-145, with HCC 2998, with HOP-62, in the experiment with HT-29 and in the experiment with IGROV-1 was > 100 µM (inactive) throughout. Besides, the GI50 in the experiment with K562, with KM12, in the experiment with M14, in the experiment with MDA-MB-231, with MOLT-4 and in the experiment on Malme-3M was > 100 µM (inactive) in each case. For the same molecule, the GI50 with NCI-H226, in the experiment with NCI-H23, in the experiment with NCI-H460, with NCI/ADR-RES, in the experiment with OVCAR-8 and in the experiment with RXF 393 was > 100 µM (inactive) each time. For the same molecule, the GI50 in the experiment on SK-OV-3 and with SR was > 100 µM (inactive) each time.
As to `O=C(NNC(=S)Nc1ccc(Cl)cc1)C12CC3CC(CC(C3)C1)C2`, the GI50 in the experiment with A498 was 4.82 µM (inactive); with DU-145, 11.6 µM (inactive); with HCC 2998, 7.1 µM (inactive); with HOP-62, 11.2 µM (inactive); with HT-29 it was 3.78 µM (inactive); with IGROV-1, 3.34 µM (inactive). The GI50 is 4.24 µM (inactive) in the experiment on K562; 9.84 µM (inactive) with KM12; 7.74 µM (inactive) with M14; 3.88 µM (inactive) in the experiment with MDA-MB-231; 1.98 µM (inactive) with MOLT-4; 7.98 µM (inactive) in the experiment with Malme-3M. Besides, the GI50 in the experiment on NCI-H226 is 10.7 µM (inactive); in the experiment on NCI-H23 it was 7.5 µM (inactive); in the experiment with NCI-H460 it was 2.97 µM (inactive); with NCI/ADR-RES, 3.56 µM (inactive); with OVCAR-8, 3.52 µM (inactive); with RXF 393, 14.7 µM (inactive). For the same molecule, the GI50 with SK-OV-3 is 9.79 µM (inactive); with SR, 1.04 µM (active).
In the case of `Cc1ccc2c(c1)Nc1cc(C(F)(F)F)ccc1[PH]2=O` (stereo not given), the GI50 is 9.53 µM (inactive) with A498; 45.6 µM (inactive) in the experiment on DU-145; 44.6 µM (inactive) in the experiment with HCC 2998; 29.1 µM (inactive) with HOP-62; 21.9 µM (inactive) with HT-29; 25.9 µM (inactive) with IGROV-1. The GI50 in the experiment on K562 was 13.1 µM (inactive); in the experiment with KM12, 31.5 µM (inactive); with M14, 65.2 µM (inactive); in the experiment on MDA-MB-231, 13.7 µM (inactive); with MOLT-4, 11 µM (inactive); with Malme-3M it was 31.8 µM (inactive). Also, the GI50 in the experiment on NCI-H226 is 21.3 µM (inactive); in the experiment with NCI-H23 it was 22.2 µM (inactive); with NCI-H460, 27.7 µM (inactive); in the experiment on NCI/ADR-RES, 67.1 µM (inactive); with OVCAR-8 it was 63.5 µM (inactive); with RXF 393, 23.2 µM (inactive). Also, the GI50 in the experiment with SK-OV-3 was 65.2 µM (inactive); in the experiment on SR, 37.4 µM (inactive).
As to `CC(=O)NCCCCCCNC(C)=O` [HEXAMETHYLENEBISACETAMIDE], the GI50 is 5790 µM (inactive) in the experiment with A498; > 8830 µM (inactive) in the experiment with DU-145; 4290 µM (inactive) in the experiment on HCC 2998; 6590 µM (inactive) with HOP-62; 4840 µM (inactive) with HT-29; 9180 µM (inactive) in the experiment on IGROV-1. Besides, the GI50 is 5740 µM (inactive) in the experiment with K562; 8450 µM (inactive) in the experiment with KM12; 6040 µM (inactive) with M14; 4180 µM (inactive) in the experiment with MDA-MB-231; 7280 µM (inactive) with MOLT-4; 3160 µM (inactive) in the experiment on Malme-3M. Besides, the GI50 in the experiment on NCI-H226 is 6810 µM (inactive); in the experiment with NCI-H23 it was 9160 µM (inactive); with NCI-H460, 4810 µM (inactive); in the experiment with NCI/ADR-RES, 7410 µM (inactive); with OVCAR-8, 7620 µM (inactive); in the experiment with RXF 393 it was 9860 µM (inactive). Moreover, the GI50 in the experiment with SK-OV-3 is 8930 µM (inactive); in the experiment with SR, > 8530 µM (inactive).
Regarding `c1ccc(-c2cc(-c3cc(-c4ccccc4)[nH]n3)[nH]n2)cc1`, the GI50 in the experiment with A498, in the experiment on DU-145, in the experiment on HCC 2998, in the experiment on HOP-62, in the experiment on HT-29 and with IGROV-1 was > 100 µM (inactive) in each case. Also, the GI50 in the experiment with K562, with KM12, with M14, in the experiment on MDA-MB-231, in the experiment with MOLT-4 and in the experiment with Malme-3M was > 100 µM (inactive) in each case. In addition, the GI50 in the experiment on NCI-H226, in the experiment with NCI-H23, in the experiment on NCI-H460, in the experiment with NCI/ADR-RES, in the experiment with OVCAR-8 and in the experiment on RXF 393 was > 100 µM (inactive) each time. Also, the GI50 with SK-OV-3 and with SR was > 100 µM (inactive) in each case.
